Results: patent publication US20080221047A1, “Aminoakyl methacrylate copolymer E for maintaining solubility of poorly-soluble drug” (ASTELLAS PHARMA INC.,, priority 2006, published 2008)

Key:
[1] = Reprecipitation (dissolution) test for tacrolimus dissolved in ethanol, Experimental Example 6; format: physicochemical
Description: (§1) Each (300 mg) of the aminoalkyl methacrylate copolymer E having a solubility enhanced with acid prepared in Example 4, and hydroxypropylmethylcellulose 2910 (TC-5E, Shin-Etsu Chemical Co., Ltd.) was dissolved in 300 mL of a second fluid for disintegrating test used in a disintegrating test described in the Japanese Pharmacopoeia fifteenth edition. For comparison, 300 mL of a second fluid for disintegrating test used in a disintegrating test described in the Japanese Pharmacopoeia fifteenth edition without such additives was prepared.
To each vessel, 1 mL of a solution of tacrolimus (100 mg/mL) in ethanol was added. Samples were taken at regular intervals, and centrifuged at 3000 rpm for 15 minutes. Tacrolimus dissolved in each supernatant was measured by a high performance liquid chromatography.

[2] = cited from earlier work
[3] = Reprecipitation (dissolution) test for compound A dissolved in acetonitrile, Experimental Example 1; format: physicochemical
Description: as §1, with “(50” for “(300”, “1,” for “4, and”, “Ltd.), and copolyvidone (Kollidon VA-64, BASF)” for “Ltd.)”, “500” for “300”
(§2) To each vessel, 2 mL of a solution of compound A (25 mg/mL) in acetonitrile was added, and an automated dissolution tester (manufactured by Toyama Sangyo Co., Ltd.) was used to carry out a reprecipitation test for compound A, in accordance with a dissolution test, method 2, described in the Japanese Pharmacopoeia. The ultraviolet absorbance of compound A was measured at a wavelength of 273 nm. The paddle rotation speed was 50 rpm. The percentage dissolved was calculated on the basis that an absorbance of 0.576 when measured using a 1 mm cell was regarded as a concentration of 100 μg/mL (compound A).

[4] = Reprecipitation (dissolution) test for compound A dissolved in polyethylene glycol 400, Experimental Example 2; format: physicochemical; conditions: compound A in polyethylene glycol 400
Description: as §1, with “(50” for “(300”, “1,” for “4,”, “500” for “300”, “dissolution” for “disintegrating”
as §2, with “polyethylene glycol 400 (Kanto Chemical Co., Inc.)” for “acetonitrile”

[5] = Reprecipitation test for compound A with copolymers of different amounts of neutralization, Experimental Example 3; format: physicochemical; conditions: compound A in acetonitrile; fluid containing copolymer E of Examples 5, 6 or 7 (every Example)
Description: Each of the aminoalkyl methacrylate copolymers E having a solubility enhanced with acid prepared in Examples 5, 6, and 7 was dissolved in 500 mL of a second fluid for dissolution test used in a dissolution test described in the Japanese Pharmacopoeia fifteenth edition.
as §2, with “(Toyama” for “(manufactured by Toyama”, “The” for “The ultraviolet”

[6] = Reprecipitation test for compound A with copolymer solubilized with citric acid, Experimental Example 4; format: physicochemical; conditions: compound A in acetonitrile; fluid containing copolymer E of Example 8 (citric acid)
Description: as §1, with “(50” for “(300”, “copolymers” for “copolymer”, “Examples 1” for “Example 4,”, “8” for “hydroxypropylmethylcellulose 2910 (TC-5E, Shin-Etsu Chemical Co., Ltd.)”, “500” for “300”
as §2, with “(Toyama” for “(manufactured by Toyama”

[7] = fluid containing hydroxypropylmethylcellulose 2910, after 2 hours

Compound	reprecipitation ([1]; absence of additives)	percentage dissolved ([1]; fluid containing copolymer E of Example 4, after 24 hours) [%]	percentage dissolved [1, 7]	water solubility [2] [µg/mL]	percentage dissolved ([3]; compound A in acetonitrile added to JP second fluid containing copolymer E of Example 1 (50 mg/500 mL), after 24 hours)	percentage dissolved ([3]; compound A in acetonitrile added to JP second fluid containing copolyvidone (50 mg/500 mL), after 2 hours)	percentage dissolved ([3]; compound A in acetonitrile added to JP second fluid containing hydroxypropylmethylcellulose 2910 (50 mg/500 mL), after 2 hours)	reprecipitation ([3]; compound A in acetonitrile added to JP second fluid, absence of additives)	reprecipitation ([4]; absence of additives)	percentage dissolved ([4]; fluid containing copolymer E of Example 1, after 24 hours)	percentage dissolved [4, 7]	maintenance of solubility [5]	maintenance of solubility [6]
C=CC[C@@H]1/C=C(\C)C[C@H](C)C[C@H](OC)[C@H]2O[C@@](O)(C(=O)C(=O)N3CCCC[C@H]3C(=O)O[C@H](/C(C)=C/[C@@H]3CC[C@@H](O)[C@H](OC)C3)[C@H](C)[C@@H](O)CC1=O)[C@H](C)C[C@@H]2OC [tacrolimus]	reprecipitated immediately after the beginning of the test	≥ 90	approximately 20%	≤ 1	–	–	–	–	–	–	–	–	–
Cc1cccc(C)c1N(CC(=O)Nc1ccc(-c2ncon2)cc1)C(=O)C1CCS(=O)(=O)CC1 [compound A, N-(2,6-Dimethylphenyl)-N-(2-{[4-(1,2,4-oxadiazol-3-yl)phenyl]amino}-2-oxoethyl)tetrahydro-2H-thiopyran-4-carboxamide 1,1-dioxide]	–	–	–	–	approximately 75%	approximately 30%	approximately 30%	reprecipitated immediately after the beginning of the test	reprecipitated immediately after the beginning of the test	approximately 75%	approximately 30%	a high solubility was maintained for a long time	maintained for a long time
